# According to patent US6642217B2, “Triterpenes having human antifungal and antiyeast activity” (Naturtek, LLC, priority 2000, dated 2003):
# How the values were obtained:
# [1] = system: herpes simplex virus; conditions: cited from earlier work
# [2] = system: Trichophyton rubrum; test: Direct addition method, solid compound in Sabouraud dextrose agar; assay type: cell-based; conditions: against Trichophyton rubrum
# Experimental: (§1) Direct addition method. Sabouraud dextrose agar was prepared according to the manufacturer's instructions and 5.0 ml was dispensed in each 100×25 mm tube. The tubes were autoclaved. To each tube containing 5.0 ml of liquid agar at 45° C., 20 mg of solid test compound was added, to give a final concentration of 4 mg/ml. The agar was solidified in slants. The fungal cultures were then innoculated. The slants were incubated at 25-28 ° C. for 10-12 days, and the growth of the fungus was recorded every second day. The results in Table 2 indicate growth at the 12th day of inoculation.
# [3] = system: Trichophyton tonsuran; test: as above; assay type: cell-based, Trichophyton tonsurans; parameters: key: +++: Maximum Fungal Growth; ++: Moderate Fungal Growth; +: Minimum Fungal Growth; +/−: Very little Fungal Growth; −: No Fungal Growth; conditions: 4 mg/mL of agar; 12th day after inoculation
# Experimental: as §1
# [4] = system: Microsporum audouinni; test: as above; assay type: cell-based, Microsporum audouinii; parameters: key to Fungal growth: +++: Maximum Fungal Growth; ++: Moderate Fungal Growth; +: Minimum Fungal Growth; +/−: Very little Fungal Growth; −: No Fungal Growth; conditions: for Fungal growth: 4 mg/mL of agar, 12th day after inoculation
# How it was run: (§2)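 Presence or absence of fungal growth was noted on alternate days, with the day-12 observation used. Test material, added undissolved to 45° C. Sabouraud dextrose medium to reach 4 mg/ml final, was solidified as slants before inoculation and incubation at 25-28° C.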
# [5] = system: Epidermophyton floccosum; test: Agar dilution method, growth on Sabouraud dextrose agar slants; assay type: cell-based; parameters: key to Fungal growth: +++: Maximum Fungal Growth; ++: Moderate Fungal Growth; +: Minimum Fungal Growth; +/−: Very little Fungal Growth; −: No Fungal Growth; conditions: 12th day after inoculation
# How it was run: (§3)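 In this agar dilution format, DMSO solutions of compound went into liquid Sabouraud dextrose agar (45 °C), which was slanted and inoculated. Incubation ran 10-12 days at 25-28 °C.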
# [6] = system: Microsporum canis; test: Direct addition method, solid compound in Sabouraud dextrose agar; assay type: cell-based; parameters: key: +++: Maximum Fungal Growth; ++: Moderate Fungal Growth; +: Minimum Fungal Growth; +/−: Very little Fungal Growth; −: No Fungal Growth; conditions: 4 mg/mL of agar; 12th day after inoculation
# How it was run: as §2
# [7] = system: Microsporum gypseum; test: as above; assay type: cell-based; parameters: key: +++: Maximum Fungal Growth; ++: Moderate Fungal Growth; +: Minimum Fungal Growth; +/−: Very little Fungal Growth; −: No Fungal Growth; conditions: 4 mg/mL of agar; 12th day after inoculation
# How it was run: as §2
# [8] = system: Pityrosporum ovale; test: as above; assay type: cell-based; parameters: key: +++: Maximum Fungal Growth; ++: Moderate Fungal Growth; +: Minimum Fungal Growth; +/−: Very little Fungal Growth; −: No Fungal Growth; conditions: 4 mg/mL of agar; 12th day after inoculation
# How it was run: as §2
# [9] = system: Trichophyton rubrum; test: as above; assay type: cell-based; parameters: key: +++: Maximum Fungal Growth; ++: Moderate Fungal Growth; +: Minimum Fungal Growth; +/−: Very little Fungal Growth; −: No Fungal Growth; conditions: 4 mg/mL of agar; 12th day after inoculation
# How it was run: as §2
# [10] = system: Epidermophyton floccosum; test: as above; assay type: cell-based; parameters: key: +++: Maximum Fungal Growth; ++: Moderate Fungal Growth; +: Minimum Fungal Growth; +/−: Very little Fungal Growth; −: No Fungal Growth; conditions: 4 mg/mL of agar; 12th day after inoculation
# How it was run: as §2
# [11] = system: Trichophyton mentagrophytes; test: as above; assay type: cell-based; parameters: key: +++: Maximum Fungal Growth; ++: Moderate Fungal Growth; +: Minimum Fungal Growth; +/−: Very little Fungal Growth; −: No Fungal Growth; conditions: 4 mg/mL of agar; 12th day after inoculation
# How it was run: as §2
# [12] = system: Microsporum audouinii; test: Summary of anti-fungal assays (direct addition, agar dilution, liquid culture); assay type: cell-based; conditions: stated in words (Tables 1a/1b, text to Table 5)
# Experimental: (§4) This example summarizes the results of various other assays of the anti-fungal activity of betulin derivatives. Table 5 summarizes results using different assay methods—direct addition, agar dilution, and direct addition to liquid culture, as disclosed in the previous three Examples. In some cases, only one type of assay was done with a compound. In other cases, the compound was tested by multiple assays.
# [13] = system: Microsporum audouinni; test: Agar dilution method, growth on Sabouraud dextrose agar slants; assay type: cell-based, Microsporum audouinii; parameters: key: +++: Maximum Fungal Growth; ++: Moderate Fungal Growth; +: Minimum Fungal Growth; +/−: Very little Fungal Growth; −: No Fungal Growth; conditions: 12th day after inoculation
# How it was run: as §3
# [14] = system: Trichophyton tonsuran; test: as above; assay type: cell-based, Trichophyton tonsurans; parameters: key: +++: Maximum Fungal Growth; ++: Moderate Fungal Growth; +: Minimum Fungal Growth; +/−: Very little Fungal Growth; −: No Fungal Growth; conditions: 12th day after inoculation
# How it was run: as §3
# [15] = system: Trichophyton mentagrophyte; test: as above; assay type: cell-based, Trichophyton mentagrophytes; parameters: key to Fungal growth: +++: Maximum Fungal Growth; ++: Moderate Fungal Growth; +: Minimum Fungal Growth; +/−: Very little Fungal Growth; −: No Fungal Growth; conditions: 12th day after inoculation
# How it was run: as §3
# [16] = system: Microsporum canis; test: as above; assay type: cell-based; parameters: key: +++: Maximum Fungal Growth; ++: Moderate Fungal Growth; +: Minimum Fungal Growth; +/−: Very little Fungal Growth; −: No Fungal Growth; conditions: 12th day after inoculation
# How it was run: as §3
# [17] = system: Microsporum gypseum; test: as above; assay type: cell-based; parameters: key: +++: Maximum Fungal Growth; ++: Moderate Fungal Growth; +: Minimum Fungal Growth; +/−: Very little Fungal Growth; −: No Fungal Growth; conditions: 12th day after inoculation
# How it was run: as §3
# [18] = system: Pityrosporum ovale; test: as above; assay type: cell-based; parameters: key: +++: Maximum Fungal Growth; ++: Moderate Fungal Growth; +: Minimum Fungal Growth; +/−: Very little Fungal Growth; −: No Fungal Growth; conditions: 12th day after inoculation
# How it was run: as §3
# [19] = system: Trichophyton rubrum; test: as above; assay type: cell-based; parameters: key: +++: Maximum Fungal Growth; ++: Moderate Fungal Growth; +: Minimum Fungal Growth; +/−: Very little Fungal Growth; −: No Fungal Growth; conditions: 12th day after inoculation
# How it was run: as §3
# [20] = system: Microsporum canis; test: Direct addition method, solid compound in Sabouraud dextrose agar; assay type: cell-based; conditions: against Microsporum canis
# Experimental: as §1
# [21] = system: Pityrosporum ovale; test: Direct addition into the Pityrosporum agar; assay type: cell-based; parameters: key to Pityrosporum ovale growth: +++: Maximum Growth; ++: Moderate Growth; +: Minimum Growth; +/−: Very Little Growth; −: No Growth; conditions: 4 mg/ml in the agar; 18 hours after inoculation
# Experimental: Direct addition method. Sabouraud dextrose agar was prepared according to the manufacturer's instructions and 5.0 ml was dispensed in each 100×25 mm tube. The tubes were autoclaved. To each tube containing 5.0 ml of liquid agar at 45° C., 20 mg of solid test compound was added, to give a final concentration of 4 mg/ml. The agar was solidified in slants. The fungal cultures were then innoculated. […]
# [22] = system: Trichophyton mentagrophytes; test: Direct addition to liquid culture method, optical density at 600 nm; assay type: cell-based; conditions: 25, 50 and 100 μg/ml; 12 days
# Experimental: Direct addition to liquid culture method. Sabouraud dextrose broth was prepared according to the manufacturer's instructions, and 7.0 ml was dispensed into 100×25 mm tubes and autoclaved. To each tube containing 7.0 ml of liquid broth, the test compounds dissolved in DMSO were added to final concentrations of 25, 50, and 100 μg/ml. The tubes were then inoculated with 150 μl of a fungus suspension and incubated at 25-28° C. for 10-12 days. Growth was measured every second day by measuring optical density at 600 nm against a blank containing sterile broth.
# [23] = system: Trichophyton tonsurans; test: Summary of anti-fungal assays (direct addition, agar dilution, liquid culture); assay type: cell-based; conditions: stated in words (Tables 1a/1b, text to Table 5)
# Experimental: as §4
# [24] = system: Microsporum gypseum; test: as above; assay type: cell-based; conditions: stated in words (Tables 1a/1b, text to Table 5)
# Experimental: as §4
# [25] = system: Candida albicans; test: as above; assay type: cell-based; conditions: stated in words (Tables 1a/1b, text to Table 5)
# Experimental: as §4
# [26] = system: Blastomyces dermatidis; test: as above; assay type: cell-based; conditions: stated in words (Tables 1a/1b, text to Table 5)
# Experimental: as §4
# [27] = system: Epidermophyton floccosum; test: as above; assay type: cell-based; conditions: stated in words (Tables 1a/1b, text to Table 5); listed as betulin-3,28-dioxalate-3,28-polyethyleneimine
# Experimental: as §4
# [28] = system: Trichophyton mentagrophytes; test: as above; assay type: cell-based; conditions: stated in words (Tables 1a/1b, text to Table 5)
# Experimental: as §4
# [29] = system: Crytococcus neoformans; test: as above; assay type: cell-based, Cryptococcus neoformans; conditions: stated in words (Tables 1a/1b, text to Table 5)
# Experimental: as §4
compound,measurement,setting,value
"C=C(C)[C@@H]1CC[C@]2(CO)CC[C@]3(C)[C@H](CC[C@@H]4[C@@]5(C)CC[C@H](O)C(C)(C)[C@@H]5CC[C@]43C)[C@@H]12 [Betulin, lup-20(29)-ene-3,28-diol]",Anti-viral activity against herpes simplex virus,[1],anti-viral activity
same,best anti-fungal or anti-yeast activity by the direct addition method,[2],against Trichophyton rubrum
same,Fungal growth,[3],++
same,Fungal growth,[4],−
same,best anti-fungal or anti-yeast activity by the direct addition method,[4]; against Microsporum audouinii,against Microsporum audouinii
same,Fungal growth,[5]; 12.5 μg/ml,+
same,Fungal growth,[5]; 25 μg/ml,+
same,Fungal growth,[5]; 50 μg/ml,−
same,Fungal growth,[5]; 100 μg/ml,−
same,Fungal growth,[6],+
same,Fungal growth,[7],++
same,Fungal growth,[8],−
same,Fungal growth,[9],−
same,Fungal growth,[10],−
same,Fungal growth,[11],++
same,Active against Microsporum audouinii,[12],"Microsporum audouinii,"
same,Fungal growth,[13]; 12.5 μg/ml,+/−
same,Fungal growth,[13]; 25 μg/ml,+/−
same,Fungal growth,[13]; 50 μg/ml,−
same,Fungal growth,[13]; 100 μg/ml,−
same,Fungal growth,[14]; 12.5 μg/ml,+++
same,Fungal growth,[14]; 25 μg/ml,++
same,Fungal growth,[14]; 50 μg/ml,++
same,Fungal growth,[14]; 100 μg/ml,−
same,Fungal growth,[15]; 12.5 μg/ml,++
same,Fungal growth,[15]; 25 μg/ml,+
same,Fungal growth,[15]; 50 μg/ml,+/−
same,Fungal growth,[15]; 100 μg/ml,−
same,Fungal growth,[16]; 12.5 μg/ml,++
same,Fungal growth,[16]; 25 μg/ml,+
same,Fungal growth,[16]; 50 μg/ml,+/−
same,Fungal growth,[16]; 100 μg/ml,−
same,Fungal growth,[17]; 12.5 μg/ml,+++
same,Fungal growth,[17]; 25 μg/ml,++
same,Fungal growth,[17]; 50 μg/ml,++
same,Fungal growth,[17]; 100 μg/ml,−
same,Fungal growth,[18]; 12.5 μg/ml,+++
same,Fungal growth,[18]; 25 μg/ml,+++
same,Fungal growth,[18]; 50 μg/ml,++
same,Fungal growth,[18]; 100 μg/ml,+/−
same,Fungal growth,[19]; 12.5 μg/ml,++
same,Fungal growth,[19]; 25 μg/ml,++
same,Fungal growth,[19]; 50 μg/ml,+
same,Fungal growth,[19]; 100 μg/ml,−
C=C(C)[C@@H]1CC[C@]2(COC(=O)/C=C\C(=O)O)CC[C@]3(C)[C@H](CC[C@@H]4[C@@]5(C)CC[C@H](O)C(C)(C)[C@@H]5CC[C@]43C)[C@@H]12 [Betulin-28-maleate],best anti-fungal or anti-yeast activity by the direct addition method,[20],against Microsporum canis
same,Fungal growth,[3],++
same,Fungal growth,[4],++
same,Fungal growth,[6],−
same,Fungal growth,[7],+++
same,Fungal growth,[8],−
same,Fungal growth,[9],++
same,Fungal growth,[10],−
same,Fungal growth,[11],++
"C=C(C)[C@@H]1CC[C@]2(C)CC[C@@]3(C)C(CCC4[C@@]5(C)CC[C@H](O)C(C)(C)C5CC[C@]43C)C12 (stereo partly drawn) [Lupeol, lup-20(29)-ene-3β-ol]",Fungal growth,[4],+
same,Fungal growth,[6],+
same,Fungal growth,[8],−
same,Fungal growth,[9],+
same,Fungal growth,[10],−
same,Pityrosporum ovale growth,[21],+
same,"Growth inhibition in liquid culture (optical density, FIG. 1)",[22],inhibited the growth
"Betulin-3,28-dioxalate-3,28-polyethyleneimine",Active against Trichophyton tonsurans,[23],"Trichophyton tonsurans,"
same,Active against Microsporum audouinii,[12],"Microsporum audouinii,"
same,Active against Microsporum gypseum,[24],"Microsporum gypseum,"
same,Active against Candida albicans,[25],"Candida albicans,"
same,Active against Blastomyces dermatidis,[26],against Blastomyces dermaidis
same,Active against Epidermophyton floccosum,[27],against Epidermophyton floccosum
same,Active against Trichophyton mentagrophytes,[28],"Trichophyton mentagrophytes,"
same,Active against Cryptococcus neoformans,[29],against Crytococcus neoformans
